AC50 data for 79 compounds are collected here from PubChem BioAssay AID1259332 (Broad Institute, 2017).

As a reminder, the AC50 is the midpoint of the concentration-response curve, whichever way the signal moves.

The subject of this test is B cell line, CD40 signaling inhibition reporter. The test is described as follows: CD40 pathway inhibition in B cells – B cell lineage, dose response (AID 1259332).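 Further: cells stimulated with CD40 ligand tCD40L.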

SMILES strings stand for the structures. Active and inactive are the calls of the source. How the calls were made is not given here.

Take `NC(c1ccccc1)c1csc(NC(=O)Nc2cccc(C(F)(F)F)c2)n1` (centres undefined): the AC50 was 6.03 µM.
As to `Fc1ccccc1CNCCC(Cc1ccccc1)c1ccc2c(c1)OCO2` (centres undefined), the AC50 was 5.98 µM.
Under `COc1cccc(NC(=O)N2CC(=O)N3[C@H](CO)[C@@H](c4ccc(C#CCC5CCCC5)cc4)[C@H]3C2)c1` stands > 7 µM (inactive); under `C[C@@H]1CN([C@H](C)CO)C(=O)c2c(c3ccccc3n2C)-c2ccccc2CO[C@@H]1CN(C)C(=O)c1cc(Cl)cc(Cl)c1`, 8.65 µM; under `C=CC[n+]1c(/C=C2\C=Cc3cc(C)ccc3N2CC)ccc2ccccc21`, 2.7 µM.
As for `CCC(C)(O)C(=O)OC1C(=O)OC2CC3C(C)=CC(=O)C(O)C3(C)C3C4(O)OCC23C1C(C)C4O` (centres undefined), the AC50 was 0.0299 µM.
With `COc1ccc(/C=N/Nc2ncccc2[N+](=O)[O-])c(OC)c1` the figure was 4.23 µM; with `Cc1csc(NC(=O)c2ccc(N3CCCC3=O)cc2)n1`, 4.3 µM.
Take `Cc1ccc(OC(=O)N(C)C[C@@H]2OCc3ccccc3-c3c(n(C)c4ccccc34)C(=O)N([C@@H](C)CO)C[C@H]2C)cc1`: the AC50 is 7.62 µM.
Under `O=C(Cc1ccccc1)N1CC[C@@H]2[C@H]1c1cc(C#Cc3cccc(F)c3)ccc1N[C@@H]2CO` stands 5.19 µM; under `O=C(C[C@@H]1CC[C@H]2[C@@H](COC[C@@H](O)CN2Cc2cc(F)ccc2F)O1)NCc1ccc(Oc2ccccc2)cc1`, > 20 µM (inactive); under `CC(=O)NC12CC3CC(C1)CC(C(=O)OCC(=O)c1ccc4c(c1)OCCO4)(C3)C2`, 6.31 µM.
In the case of `CC(=O)OCC12CC(OC(=O)CC(C)C)C(C)=CC1OC1C(O)C(OC(C)=O)C2(C)C12CO2` (centres undefined), the AC50 is 2.74 µM.
Under `Cc1ccc(S(=O)(=O)N2CCCC2CNC(=O)c2ccc3c(c2)OCO3)cc1` (centres undefined) stands 3.91 µM; under `Cc1ccc(CN2CC(C(=O)Nc3ncc(C)s3)CC2=O)cc1` (centres undefined), 4.99 µM.
In the case of `C[C@@H]1O[C@@H](O[C@H]2C[C@@H](O)[C@]3(CO)[C@H]4[C@H](O)C[C@]5(C)[C@@H](C6COC(=O)C6)CC[C@]5(O)[C@@H]4CC[C@]3(O)C2)[C@H](O)[C@H](O)[C@H]1O` (some centres undefined), the AC50 was 2.55 µM.
With `CC1=C(C#N)c2nc(N)c(C#N)c(C)c2/C1=C\c1ccccc1` the figure was 4.41 µM; with `Cc1ccnc(NC(=O)c2ccc(OCC3CCCO3)cc2)c1` (centres undefined), 5.23 µM; with `CC(C)c1ccc(NC(=O)Nc2nc(C(N)COCc3ccccc3)cs2)cc1` (centres undefined), 2.62 µM.
Regarding `CO[C@H](CN(C)Cc1cc(F)ccc1F)[C@H](C)CN(C(=O)Nc1ccc(C(F)(F)F)cc1)[C@H](C)CO`, the AC50 is 8.88 µM.
`c1ccc(-c2ccc(-c3ccccn3)nn2)nc1`: the AC50 was 7.89 µM.
Regarding `O=[N+]([O-])c1ccc(N2CCOCC2)c2c1no[n+]2[O-]`, the AC50 is 1.76 µM.
Consider `C=C1CC(Cn2cc(Br)c(=O)[nH]c2=O)(c2ccc(-c3ccccc3)cc2)OC1=O` (centres undefined), for which the AC50 was 1.07 µM.
As for `N#C[C@@H]1[C@H](c2ccc(C#Cc3ccccc3F)cc2)[C@@H](CO)N1C(=O)C1CC1`, the AC50 is 1.59 µM.
With `Cn1c(CO)nc2cc(N)ccc21`, the AC50 is > 20 µM (inactive).
As to `CCc1cnc(N2[C@H](C#N)[C@H](c3ccc(C#Cc4ccccc4F)cc3)[C@H]2CO)s1`, the AC50 was 9.09 µM.
As to `O=C(c1ccc(F)cc1)N1C[C@@H]2N[C@H](C1)C2c1ccc(/C=C/c2ccccc2)cc1` (some centres undefined), the AC50 was 4.68 µM.
As for `CC1(C)C(=O)C=C[C@@]2(C)C1C[C@@H](O)[C@]1(C)C2CC[C@@]2(C)[C@H](c3ccoc3)OC(=O)[C@H]3O[C@]321` (some centres undefined), the AC50 is 7.18 µM.
Consider `CCC(=O)NC(c1ccccc1OC)c1ccc2cccnc2c1O` (centres undefined), for which the AC50 was 8.63 µM.
For the compound `CC1OC(OC2C(O)CC(OC3C(O)CC(OC4CCC5(C)C(CCC6C5CCC5(C)C(C7=CC(=O)OC7)C(O)CC65O)C4)OC3C)OC2C)CC(O)C1O` (centres undefined), the AC50 was 0.943 µM.
With `Cc1cccc(-c2nc3cc(NC(=O)C4CCCO4)ccc3o2)c1` (centres undefined), the AC50 is > 20 µM (inactive).
For the compound `COc1ccc(C(=O)CCN2CCc3cc(OC)c(OC)cc3C2)cc1`, the AC50 was 5.82 µM.
For the compound `O=C1C=CC2C3C(=O)N(c4ccccc4)C(=O)C3C1N2Cc1ccccc1` (centres undefined), the AC50 is 1.8 µM.
Regarding `O=C(COC(=O)c1ccccc1C(=O)c1ccc(Cl)c([N+](=O)[O-])c1)NC1CC1`, the AC50 was 1.62 µM.
For `O=C1NC2c3c(I)sc(I)c3C(=O)C2O1` (centres undefined), the AC50 is 3.2 µM.
As to `COc1ccc(CN(CCC(c2ccccc2)c2ccc(OC(C)C)cc2)C(=O)CCl)cc1OC` (centres undefined), the AC50 was 1.68 µM.
On to `Cc1noc(C)c1S(=O)(=O)Nc1ccc2c(c1)C(=O)N([C@@H](C)CO)C[C@@H](C)[C@@H](CN(C)C(=O)Nc1cccc3ccccc13)OCCCC[C@H](C)O2`, for which the AC50 was 1.52 µM.
For the compound `C=C1C(=O)OC2C=C(CO)C3OC3C3OC3(C)CC(OC(=O)/C(=C/C)COC(C)=O)C12` (centres undefined), the AC50 is 2.02 µM.
With `Cn1cnc(S(=O)(=O)N2C[C@@H]3N[C@H](C2)C3c2ccc(-c3ccccc3F)cc2)c1` (some centres undefined), the AC50 is 11 µM.
Consider `O=C(C1CCCC1)N1CC(=O)N2[C@@H](CO)[C@@H](c3ccc(C#CCc4ccccc4)cc3)[C@@H]2C1`, for which the AC50 is 1.95 µM.
For the compound `N#Cc1cccc(-c2ccc(C3[C@H]4CNC[C@@H]3N4Cc3ccc4c(c3)OCO4)cc2)c1` (some centres undefined), the AC50 is > 20 µM (inactive).
In the case of `C[C@H](CO)N1C[C@H](C)[C@@H](CN(C)Cc2cccc(C(F)(F)F)c2)OCc2ccccc2-c2c(n(C)c3ccccc23)C1=O`, the AC50 was > 20 µM (inactive).
Turning to `COc1ccc2c3c([nH]c2c1)[C@H](CO)N(C(=O)Nc1ccc(F)cc1)CC31CCN(C(=O)c2ccccc2F)CC1`, the AC50 is 6.92 µM.
As to `C[n+]1c(-c2ccccc2)cc2c(=Cc3ccc([N+](=O)[O-])cc3)c3ccccc3n21`, the AC50 is 3.93 µM.
With `COc1ccc(CC2C(=O)NC(C)C(=O)N(C)C3C(=O)N(C)C(Cc4ccc(O)c(c4)Oc4ccc(cc4)C3O)C(=O)NC(C)C(=O)NC(C)C(=O)N2C)cc1` (centres undefined), the AC50 was 0.00902 µM.
In the case of `CNC(=S)NN=C(C)CCCC(C)=NNC(=S)NC`, the AC50 was 1.26 µM.
Under `CC(C)c1c(O)ccc2c1CCC1C(C)(C)CCC[C@]21C` (some centres undefined) stands 5.44 µM.
On to `CCCNC(=O)N1[C@@H](C#N)[C@H](c2ccc(-c3cccc(OC)c3)cc2)[C@@H]1CO`, for which the AC50 was 11 µM.
In the case of `Cn1cnc([N+](=O)[O-])c1S(=O)(=O)Oc1cccc2ccccc12`, the AC50 is 0.368 µM.
As for `c1ccc(OCCSc2nnc3sc4ccccc4n23)cc1`, the AC50 was 4.7 µM.
For the compound `CC12CCC3C(CCC4(O)CC(O)CCC34C=O)C1(O)CCC2C1=CC(=O)OC1` (centres undefined), the AC50 was 3.86 µM.
With `c1ccc2sc(-c3ccc4c(c3)OCO4)nc2c1` the figure was 8.5 µM; with `Cc1cc(C)nc(Sc2ncnc(N)c2[N+](=O)[O-])n1`, 2.63 µM.
For `C[C@@H]1CN([C@H](C)CO)C(=O)c2c(c3ccccc3n2C)-c2ccccc2CO[C@H]1CN(C)C(=O)Nc1cccc(Cl)c1Cl`, the AC50 is 7.74 µM.
For the compound `COc1ccc(S(=O)(=O)N(C)C[C@H]2Oc3ccc(NC(=O)Nc4ccc(C(F)(F)F)cc4)cc3C(=O)N([C@H](C)CO)C[C@H]2C)cc1`, the AC50 is 10.5 µM.
As for `O=C(Nc1ccccn1)c1ccc(-c2ccccc2)cc1`, the AC50 was 2.35 µM.
As to `O=C(NCCc1ccccc1)c1ccc2nccnc2c1`, the AC50 was 6.02 µM.
`CC(=O)OC1CC2(O)C3CCC4CC(O)CCC4(C)C3CCC2(C)C1C1=CC(=O)OC1` (centres undefined): the AC50 is 1.12 µM.
On to `O=C1NC2C(O)C(O)C(O)C(O)C2c2cc3c(c(O)c21)OCO3` (centres undefined), for which the AC50 was 0.155 µM.
Take `O=C(c1nnsc1S(=O)(=O)c1ccc(Cl)cc1)N1CCOCC1`: the AC50 is 2.31 µM.
As for `CCN(CC)CCCNc1nc2ccccc2c2[nH]c3ccc(OC)cc3c12`, the half-maximal activity concentration (AC50) is 1.1 µM.
Regarding `O=C(Cc1ccccc1)N1CC[C@@H]2[C@H]1c1cc(-c3cccc(F)c3)ccc1N[C@@H]2CO`, the AC50 was 1.89 µM.
Consider `N#C[C@@H]1[C@H](c2ccc(C#CC3CCCC3)cc2)[C@@H](CO)N1C(=O)Nc1ccc(F)cc1`, for which the AC50 was > 20 µM (inactive).
With `COc1cccc(C#Cc2ccc([C@H]3[C@@H](C#N)N(C(=O)c4ccccn4)[C@@H]3CO)cc2)c1` the figure was 5.81 µM; with `CC[C@@]1(O)C(=O)OCc2c1cc1n(c2=O)Cc2cc3ccccc3nc2-1`, 0.961 µM; with `CC(C)(C)OC(=O)CC(S(=O)(=O)c1ccccc1)S(=O)(=O)c1ccccc1`, 0.95 µM.
With `Cc1ccc(-c2ccccc2[C@H]2[C@@H](C#N)N(c3ncc(-c4ccccc4)s3)[C@@H]2CO)cc1` the figure was > 20 µM (inactive).
For `COc1ccc(C#Cc2ccc([C@H]3[C@H]4CN(C(=O)c5ccncc5)CCCCN4[C@H]3CO)cc2)cc1`, the AC50 was 11.2 µM.
For `CC1CC(C)(O)CC(C(O)CC2CC(=O)NC(=O)C2)C1=O` (centres undefined), the AC50 is 0.0973 µM.
With `CCOC(=O)c1cc2c(ccn2C)n1Cc1ccc(C#N)cc1` the figure was > 20 µM (inactive).
Turning to `COc1ccc(S(=O)(=O)Nc2ccc3c(c2)C(=O)N([C@H](C)CO)C[C@H](C)[C@@H](CN(C)Cc2ccc(C(F)(F)F)cc2)OCCCC[C@@H](C)O3)cc1`, the AC50 was 11.4 µM.
`C[C@H](CO)N1C[C@H](C)[C@H](CN(C)C(=O)Nc2cccc(Cl)c2Cl)OCc2ccccc2-c2c(n(C)c3ccccc23)C1=O`: the AC50 is 5.24 µM.
For the compound `Cn1cc(C2=C(c3cn(CCCSC(=N)N)c4ccccc34)C(=O)NC2=O)c2ccccc21`, the AC50 is 0.67 µM.
As to `Cc1cc(OCC(=O)OCC(=O)NCc2ccco2)ccc1Cl`, the AC50 is 9.63 µM.
Regarding `Cc1ccc(O)c(N=Nc2ccccc2)n1`, the AC50 was 8.46 µM.
On to `COc1ccc2c(c1)c1ncn(Cc3ccccn3)c(=O)c1n2C`, for which the AC50 is > 20 µM (inactive).
With `C[C@@H]1CCCCO[C@H](CN(C)CC2CCCCC2)[C@H](C)CN([C@@H](C)CO)C(=O)c2cc(NC(=O)Nc3ccc(C(F)(F)F)cc3)ccc2O1`, the AC50 is 8.6 µM.
With `CC(=O)O[C@H]1C[C@H](O[C@H]2[C@@H](O)C[C@H](O[C@H]3[C@@H](O)C[C@H](O[C@H]4CC[C@@]5(C)C(CCC6C5C[C@@H](O)[C@]5(C)[C@@H](C7=CC(=O)OC7)CC[C@]65O)C4)O[C@@H]3C)O[C@@H]2C)O[C@H](C)[C@H]1O[C@@H]1O[C@H](CO)[C@@H](O)[C@H](O)[C@H]1O` (some centres undefined) the figure was 0.909 µM; with `C[C@@H]1CN([C@@H](C)CO)C(=O)c2c(c3ccccc3n2C)-c2ccccc2CO[C@H]1CN(C)Cc1cccc(C(=O)Nc2ccccc2N)c1`, > 20 µM (inactive).
